# Target: T1, PIN1-CD (catalytic peptidyl-prolyl isomerase domain, devoid of the PIN1 WW domain) (Homo sapiens, UniProt Q13526)
# T1 construct: PIN1 peptide containing the catalytic peptidyl-prolyl isomerase domain but devoid of the PIN1 WW domain
# Test: Pin1 peptidyl-prolyl isomerase assay (protease-coupled, spectrophotometric)
# Assay type: biochemical
# Conditions: catalytic PPIase domain without WW domain; 15° C., pH 7.5, 100 μM Suc-AEPF-pNA
# Text: PIN1 is a phosphorylation dependent peptidyl-prolyl isomerase. The PIN1 assay is a spectrophotometric assay based on the coupled chymotrypsin or subtilisin catalyzed, cis-trans conformation dependent cleavage of a para-nitroanaline containing peptide substrate. […] Cleavage of the isomerized peptide releases para-nitroanaline, which can be monitored by an increase in absorbance at 390 nm. The PIN1 peptide substrate, succinyl-[…]-proline-phenylalanine-paranitroaniline (Suc-AEPF-pNA) (Bachem), is kept in a predominantly cis conformation with an anhydrous TFE/LiCl solvent mixture.
# Upon dilution into an aqueous assay mixture containing PIN1, the peptide substrate undergoes PIN1 catalyzed isomerization to the trans conformation. […] To minimize the spontaneous isomerization of the peptide substrate, reactions are performed at 15° C. A typical reaction contains 25 mM MOPS pH 7.5, 0.5 mM TCEP, 2% DMSO, 5 μl of a 25 mg/ml solution of subtilisin Carlsberg, 50 nM PIN1-PPiase, and 100 μM Suc-AEPF-pNA peptide substrate. Reactions are cooled to 15° C. and initiated with the addition of Suc-AEPF-pNA. The absorbance at 390 nm is monitored continuously until all substrate has been converted to the cleaved product. […] The rate constant k is linearly proportional to the concentration of active enzyme present in the assay mixture once the rate constant for the spontaneous isomerization is subtracted. […] Therefore, during inhibition experiments, the IC50, for non-tight binding inhibitors, is essentially the inhibition constant Ki.
# (§1) In Table 1, the Ki data reported under the PIN1—CD heading corresponds to testing with PIN1 peptide containing the catalytic peptidyl-prolyl isomerase domain but devoid of the PIN1 WW domain. Similarly, the dissociation constant (Kd) data under PIN1-CD refers to testing with a peptide containing the catalytic PIN1 domain but devoid of the PIN1 WW domain.
# T1 sequence (Q13526 52-163 limits assumed): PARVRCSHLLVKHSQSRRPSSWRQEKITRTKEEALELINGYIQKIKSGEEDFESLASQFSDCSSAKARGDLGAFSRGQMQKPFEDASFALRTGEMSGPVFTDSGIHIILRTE
row,Structure (SMILES),Ki
1,"O=C(N[C@H](Cc1cccc(F)c1)CP(=O)(O)O)c1cc2ccccc2s1 [Example 98, [2-[(Benzo[b]thiophene-2-carbonyl)-amino]-3-(3-fluoro-phenyl)-propyl]-phosphonic acid]",< 1000 nM
2,"CC(C)(C)C(=O)N[C@@H](COP(=O)(O)O)Cc1ccccc1 [Example 25-16, Phosphoric acid mono-[(R)-2-(2,2-dimethyl-propanoylamino)-3-phenyl-propyl]ester]",< 1000 nM
3,"CC(=O)OCOP(=O)(OCOC(C)=O)OC[C@@H](Cc1cccc(F)c1)NC(=O)c1cc2ccccc2s1 [Example 85, Acetic acid acetoxymethoxy-[(R)-2-[(1-benzo[b]thiophen-2-yl-methanoyl)-amino]-3-(3-fluoro-phenyl)-propoxy]-phosphoryloxymethyl ester]",< 100000 nM
4,"O=C(N[C@@H](COP(=O)(O)O)Cc1ccccc1)c1cccc(Cl)c1 [Example 25-8, Phosphoric acid mono-(2-{[1-(3-chloro-phenyl)-methanoyl]-amino}-3-phenyl-propyl) ester]",< 1000 nM
5,"CCN(CC)c1ccc2cc(C(=O)N[C@@H](COP(=O)(O)O)Cc3cccc(F)c3)c(=O)oc2c1 [Example 25-33, Phosphoric acid mono-[(R)-2-{[1-(diethylamino-oxo-2H-chromen-3-yl)-methanoyl]-amino}-3-(3-fluoro-phenyl)-propyl]ester]",< 1000 nM
6,"CC(=O)N[C@@H](COP(=O)(O)O)Cc1ccccc1 [Example 25-40, Phosphoric acid mono-(2-acetylamino-3-phenyl-propyl)ester]",< 10000 nM
7,"O=C(N[C@@H](COP(=O)(O)O)Cc1cccc(F)c1)c1ccc2nc[nH]c2c1 [Example 61, Phosphoric acid mono-[(R)-2-[(1-3H-benzoimidazol-5-yl-methanoyl)-amino]-3-(3-fluoro-phenyl)-propyl]ester]",< 1000 nM
8,"O=C(N[C@@H](COP(=O)(O)O)CC1CCCCC1)c1ccc2ccccc2c1 [Example 33, Phosphoric acid mono-{(R)-3-cyclohexyl-2-[(1-naphthalen-2-yl-methanoyl)-amino]-propyl}ester]",< 10000 nM
9,"CN(C)c1cccc2c(S(=O)(=O)N[C@@H](COP(=O)(Oc3ccccc3)Oc3ccccc3)Cc3cccc(F)c3)cccc12 [Example 86, Phosphoric acid (R)-2-(5-dimethylamino-naphthalene-1-sulfonylamino)-3-(3-fluoro-phenyl)-propyl ester diphenyl ester]",< 100000 nM
10,"O=C(N[C@@H](CCP(=O)(O)O)Cc1cccc(F)c1)c1cc2ccccc2s1 [Example 71, ([(R)-3-[(Benzo[b]thiophene-2-carbonyl)-amino]4-(3-fluoro-phenyl)-butyl]-phosphonic acid)]",< 1000 nM
11,"O=C(OC(CCCc1ccccc1)CCCc1ccccc1)[C@@H]1CCCCN1C(=O)N[C@@H](COP(=O)(O)O)Cc1cccc(F)c1 [Example 79, (S)-1-[(R)-2-(3-Fluoro-phenyl)-1-phosphonooxymethyl-ethylcarbamoy]-piperidine-2-carboxylic acid 4-phenyl-1-(3-phenyl-propyl)-butyl ester]",< 1000 nM

# Target: T2, PIN1-CD (catalytic PIN1 domain, devoid of the PIN1 WW domain) (Homo sapiens, UniProt Q13526)
# T2 construct: PIN1 peptide containing the catalytic peptidyl-prolyl isomerase domain but devoid of the PIN1 WW domain
# Test: Dissociation constant (Kd) with PIN1 catalytic domain
# Assay type: binding
# Conditions: peptide containing the catalytic PIN1 domain
# Text: as §1
# T2 sequence (Q13526 52-163 limits assumed): as above
row,Structure (SMILES),Kd
1,"O=C(N[C@@H](COP(=O)(O)O)Cc1ccccc1)c1ccc(Cl)c(Cl)c1 [Example 25-5, Phosphoric acid mono-(2-{[1-(3,4-dichloro-phenyl)-methanoyl]amino}-3-phenyl-propyl)ester]",< 1000 nM
2,"O=C(N[C@@H](COP(=O)(O)O)Cc1ccccc1)c1ccccc1O [Example 25-13, Phosphoric acid mono-(2-{[1-(2-hydroxy-phenyl)-methanoyl]-amino}-3-phenyl-propyl)ester]",< 10000 nM
3,O=C(N[C@@H](COP(=O)(O)O)Cc1ccccc1)c1sccc1Cl [Example 25-12],< 1000 nM
4,"O=C(N[C@@H](COP(=O)(O)O)Cc1ccccc1)c1cccc2ccccc12 [Example 25-10, Phosphoric acid mono-{2-[(1-naphthalen-1-yl-methanoyl)-amino]-3-phenyl-propyl}ester]",< 1000 nM
5,"Cc1nn(-c2ccccc2)nc1C(=O)N[C@@H](COP(=O)(O)O)Cc1ccccc1 [Example 25-7, Phosphoric acid mono-(2-{[1-(5-methyl-2-phenyl-2H-[1,2,3]triazol-4-yl)-methanoyl]-amino}-3-phenyl-propyl)ester]",< 1000 nM
6,"O=C(N[C@@H](COP(=O)(O)O)Cc1ccccc1)c1cc2ccccc2[nH]1 [Example 25-18, Phosphoric acid mono-{2-[(1-1H-indol-2-yl-methanoyl)-amino]-3-phenyl-propyl}ester]",< 1000 nM
7,"O=C(N[C@@H](COP(=O)(O)O)Cc1ccccc1)c1cc2ccccc2cc1O [Example 25-22, Phosphoric acid mono-(2-{[1-(3-hydroxy-naphthalen-2-yl)-methanoyl]-amino}-3-phenyl-propyl)ester]",< 1000 nM
8,"O=C(N[C@@H](COP(=O)(O)O)Cc1ccccc1)c1ccc2ccccc2c1Br [Example 25-24, Phosphoric acid mono-(2-{[1-(1-bromo-naphthalen-2-yl)-methanoyl]amino}-3-phenyl-propyl)ester]",< 1000 nM
9,"CN(C(=O)c1ccc2ccccc2c1)C(COP(=O)(O)O)Cc1ccccc1 (stereo not drawn) [Example 58, Phosphoric acid mono-{[methyl-(1-naphthalen-2-yl-methanoyl)-amino]-phenyl-propyl}ester]",< 10000 nM
10,"NS(=O)(=O)OC[C@@H](Cc1ccccc1)NC(=O)c1ccc2ccccc2c1 [Example 72, Sulfamic acid 2-[(1-naphthalen-2-yl-methanoyl)-amino]-3-phenyl-propyl ester]",< 100000 nM
11,"O=C(N[C@@H](COP(=O)(O)O)Cc1ccccc1)c1ccco1 [Example 25-14, Phosphoric acid mono-{2-[(1-furan-2-yl-methanoyl)-amino]-3-phenyl-propyl}ester]",< 10000 nM
12,O=C(N[C@@H](COP(=O)(O)O)Cc1ccccc1)c1ccc2ccccc2c1O [Example 25-21],< 1000 nM
13,"COc1cc(NC(=O)N[C@@H](COP(=O)(O)O)Cc2ccccc2)cc(OC)c1 [Example 23d, Phosphoric acid mono-{2-[3-(3,5dimethoxy-phenyl)-ureido]-3-phenyl-propyl}ester]",< 1000 nM
14,"COc1ccc2cc(C(=O)N[C@@H](COP(=O)(O)O)Cc3ccccc3)ccc2c1 [Example 25-25, Phosphoric acid mono-(2-{[1-(6-methoxy-naphthalen-2-yl)-methanoyl]-amino}-3-phenyl-propyl)ester]",< 1000 nM
15,"O=C(Nc1ccccc1Oc1ccccc1)N[C@@H](COP(=O)(O)O)Cc1ccccc1 [Example 23b, Phosphoric acid mono-{2-[3-(2-phenoxy-phenyl)-ureido]-3-phenyl-propyl}ester]",< 1000 nM
16,"O=C(N[C@@H](COP(=O)(O)O)Cc1ccccc1)c1ccc(Oc2cc(Cl)cc(Cl)c2)o1 [Example 25-4, Phosphoric acid mono-[2-({1-[5-(3,5-dichloro-phenoxy)-furan-2-yl]-methanoyl}-amino)-3-phenyl-propyl]ester]",< 1000 nM
17,"O=C(N[C@@H](COP(=O)(O)O)Cc1ccccc1)c1ccc2cc(O)ccc2c1 [Example 25-20, Phosphoric acid mono-(2-{[1-(6-hydroxy-naphthalen-2-yl)-methanoyl]-amino}-3-phenyl-propyl)ester]",< 1000 nM
18,"O=C(N[C@@H](COP(=O)(O)O)Cc1ccccc1)c1cnc2ccccc2n1 [Example 25-11, Phosphoric acid mono-{3-phenyl-2-[(1-quinoxalin-2-yl-methanoyl)-amino]-propyl}ester]",< 1000 nM
19,"COc1cc(C)cc(NC(=O)N[C@@H](COP(=O)(O)O)Cc2ccccc2)c1 [Example 23c, Phosphoric acid mono-{2-[3-(3-methoxy-5-methyl-phenyl)-ureido]-3-phenyl-propyl}ester]",< 1000 nM
20,"O=C(N[C@@H](COP(=O)(O)O)Cc1ccccc1)c1cc2ccccc2o1 [Example 25-19, Phosphoric acid mono-{2-[(1-benzofuran-2-yl-methanoyl)-amino]-3-phenyl-propyl}ester]",< 1000 nM
21,"COc1c(C(=O)N[C@@H](COP(=O)(O)O)Cc2ccccc2)csc1Cl [Example 25-6, Phosphoric acid mono-(2{[1-(5-chloro-4-methoxy-thiophen-3-yl)-methanoyl]-amino}-3-phenyl-propyl)ester]",< 1000 nM
22,"O=C(N[C@@H](COP(=O)(O)O)Cc1ccccc1)c1cc2ccccc2[s+]1[O-] (stereo in doubt) [25-2′, Phosphoric acid mono-(2-{[1-(1-oxo-benzo[b]thiophen-2-yl)-methanoyl]-amino}-3-phenyl-propyl)ester]",< 1000 nM

# Reference: US20050250742A1 (Pfizer Inc., priority 2004, published 2005)
